Earlier results as cited in patent US4814324A, “Sterol inhibitors of testosterone 5α-reductase” (Merck & Co., Inc., priority 1987, dated 1989).

Assays:
[1] = system: testosterone-5α-reductase; conditions: Voigt and Hsia, Endocrinology, 92, 1216 (1973)
[2] = system: female hamster flank organ; conditions: Voigt and Hsia; for response elicited by 5α-dihydrotestosterone (flank organ enlargement) / response elicited by testosterone (flank organ enlargement): topical; for response elicited by 5α-dihydrotestosterone (flank organ enlargement): concomitant with 5α-dihydrotestosterone; for response elicited by testosterone (flank organ enlargement): concomitant with testosterone; for enlargement of the female hamster flank organ: topical application alone

Compound: C[C@]12CC[C@H]3[C@@H](CCC4=CC(=O)CC[C@@]43C)[C@@H]1CC[C@@H]2C(=O)O [4-androsten-3-one-17β-carboxylic acid]
- testosterone-5α-reductase inhibition in vitro [1]: active inhibitors
- response elicited by 5α-dihydrotestosterone (flank organ enlargement) [2]: did not inhibit the response elicited by 5α-dihydrotestosterone
- response elicited by testosterone (flank organ enlargement) [2]: inhibited the response elicited by testosterone

Compound: C[C@]12CCC(=O)C[C@@H]1CC[C@@H]1[C@@H]2CC[C@]2(C)[C@@H](O)CC[C@@H]12 [5α-dihydrotesterone, 5α-dihydrotestosterone]
- enlargement of the female hamster flank organ [2]: caused enlargement of the female hamster flank organ

Compound: COC(=O)[C@H]1CC[C@H]2[C@@H]3CCC4=CC(=O)CC[C@]4(C)[C@H]3CC[C@]12C [methyl 4-androsten-3-one-17β-carboxylate]
- testosterone-5α-reductase inhibition in vitro [1]: active inhibitors
- response elicited by 5α-dihydrotestosterone (flank organ enlargement) [2]: did not inhibit the response elicited by 5α-dihydrotestosterone
- response elicited by testosterone (flank organ enlargement) [2]: inhibited the response elicited by testosterone

Compound: C[C@]12CC[C@H]3[C@@H](CCC4=CC(=O)CC[C@@]43C)[C@@H]1CC[C@@H]2O [testosterone]
- enlargement of the female hamster flank organ [2]: caused enlargement of the female hamster flank organ
